The results in this text go back to patent US4902690A, “Pest controlling compositions” (The General Hospital Corporation, priority 1988, dated 1990).

The subject of data set [1] is phosphodiesterase enzyme of hornworm nerve cord. Briefly: PDE inhibitory activity, hornworm nerve tissue. Format: biochemical, tobacco hornworm (Manducca sexta). The note with it: FIG. 8. The source says: (§1) The ability of any compound (A) to inhibit phosphodiesterase (PDE) activity in broken cell preparations of firefly lantern or in pest tissues can be determined either (1) by measuring the decrease in rate of hydrolysis of an added amount of cyclic AMP by PDE (see Methods Section of Nathanson et al., Mol. Pharmacol. 12:390-398 (1975)), or (2) by measuring the rate of accumulation of one of the breakdown products of cyclic AMP, such as 5'-AMP or adenosine (see method of Filburn et al., Anal. Biochem. 52:505-516 (1973)). Both of these are herein incorporated by reference.
(§2) In this assay (modified slightly from Filburn and Karn (Analyt. Biochem. 52: 505-516 (1973)), the rate of hydrolysis of labeled cyclic AMP to 5'-AMP by PDE is measured by converting the breakdown product (5'-AMP) to adenosine, which can be separated and measured by alumina chromatography. Specifically, tissue from either the firefly lantern or pest is homogenized (10-20 mg/ml) in 6 mM Tris-maleate buffer, pH 7.4. The hydrolysis reaction is run in test tubes containing (in 100 microliters): 80 mM Tris maleate, pH 7.4; 6 mM MgSO4; 10 pmoles tritiated cyclic AMP (2×10^4 to 2×10^5 cpm, depending upon the activity of the enzyme); 20 microliters of tissue homogenate; and various concentrations of the compound to be tested. In those cases in which the compound is insoluble in aqueous solution at pH 7.4, pH can be varied between pH 6.5 and 9.0 for optimization of solubility. In addition, the test compound can be initially solubilized in either 100% methanol or DMSO and diluted to a final concentration of 10% methanol or DMSO in the assay (in which case solvent controls are run in parallel).
The reaction is started by the addition of homogenate, run for 4 min at 37° C., and terminated by boiling for 90 sec. […] The void volume is discarded and the column is then eluted with 2 ml of 0.1N ammonium acetate, pH 4.0, the eluent collected and counted by liquid scintillation spectrometry. […]

The next data set has as its system Manducca eggs. Briefly: Ovacidal test (eggs dipped in drug solutions). The note with it: IBMX 0.1 g/100 ml alone (C* = no agonist); control without IBMX 80. Format: in vivo, Manducca sexta. The procedure:
In some cases, test agents were tested for ovacidal activity by dipping groups of 10-50 Manducca eggs in drug solutions for 60 seconds and then determining the percentage of eggs which produced viable larvae. A compound or synergist with active ovacidal activity was one which decreased the percentage of eggs hatched, relative to control.

For data set [2], the system named is Firefly phosphodiesterase enzyme. Nature of the data set: PDE inhibitory activity, firefly lantern. Type of data set: biochemical, firefly (Photinus pyralis). As to conditions: for phosphodiesterase inhibition: FIG. 6.
Text: as §1
Generally, any compound capable of maximally inhibiting PDE activity by at least 50% (Vmax -inhibition) and preferably by at least 80% is preferred. Also, in terms of the concentration of the compound required for such inhibition, this can be quantitated by determining the IC 50-inhibition, i.e., the concentration of the compound required to cause 50% of the maximal inhibitioncaused by the compound at any concentration.
as §2
The reaction is started by the addition of homogenate, run for 4 min at 37° C., and terminated by boiling for 90 sec. The 5'AMP formed is then converted to adenosine by the addition of 20 microliters of an aqueous solution of 0.5 Units/ml of 5'-nucleotidase (Sigma, Grade IV), vortexed, and incubated for 30 minutes at 37° C. The second reaction is stopped by addition of 0.4 ml of 0.1N ammonium acetate, pH 4.0. The entire sample is then applied to a 0.5×8 cm column containing neutral alumina prewashed with 20 ml of 0.1N ammonium acetate, pH 4.0. The void volume is discarded and the column is then eluted with 2 ml of 0.1N ammonium acetate, pH 4.0, the eluent collected and counted by liquid scintillation spectrometry. Activity is cpms above that due to a blank which was initially incubated for 0 seconds in the first reaction.

For data set [3], the system named is cyclic AMP content of intact nerve cords of tobacco hornworms. Nature of the data set: Cyclic AMP content of intact nerve cords incubated in vitro. Type of data set: cell-based, tobacco hornworm (Manducca sexta). As to conditions: 100 micromoles/liter of IBMX, 5 minutes in vitro; without PDE inhibitor 8.9±1.6.
In data set [4] the test system is tobacco hornworms (Manducca sexta). Nature of the data set: In vivo leaf test (feeding on sprayed tomato leaves).
For data set [5], the system named is PDE in tissue homogenate from tobacco hornworm nerve cord. Briefly: Cyclic AMP analogue remaining after incubation with nerve cord homogenate. Format: in vitro ADME, tobacco hornworm (Manducca sexta). The note with it: IBMX 0.1 mM; 4 hours in vitro; FIG. 20. The procedure: It has been previously shown, above, that PDE inhibition can increase the concentration of cyclic AMP in insect tissue. […] In order to do this, a fixed amount of butyl-benzylthio cyclic AMP was incubated in vitro for 4 hours in the presence of a tissue homogenate from tobacco hornworm nerve cord. In some tubes, IBMX (0.1 mM) was added to inhibit PDE. After the incubation, the amount of butyl-benzylthio cyclic AMP remaining was measured by protein binding assay (Brown et al., supra), using a standard curve based upon butyl-benzylthio cyclic AMP.

Data set [6] is described as follows: Level of PDE inhibitor compound in insects in vivo. As to conditions: feeding 72 hours on tomato leaves treated with a 1% spray of theophylline; read-out: internal concentration within the insects. The arrangement: species or system tobacco hornworms. How it is done: To determine this, tobacco hornworms were allowed to feed on tomato leaves treated with a 1% spray of theophylline. This concentration was chosen since it is an amount which, by itself, inhibits feeding in the tobacco hornworm (see FIG. 13). After 72 hours, worms (alive or dead) were removed, quickly rinsed of any compound adhering to their outside cuticle, and then homogenized. The homogenate was centrifuged at 2000×g for 5 minutes and the supernatant was assayed for theophylline concentration by a standard immunoenzymatic procedure (Emit-aad® Theophylline Assay, Syva Company, Palo Alto, Calif.). By this procedure, the internal concentration within the insects was determined to be 4.0 mM. From FIGS. 6,7 or 8 it will be seen that this concentration of theophylline is sufficient to cause at least 70% inhibition of PDE enzyme activity in vitro. The correspondence between in vitro and in vivo results is remarkably close and serves to further support the invention.

Turning to `CC(C)Cn1c(=O)n(C)c(=O)c2[nH]cnc21` [IBMX, isobutylmethylxanthine], in data set [1], the “pattern of PDE inhibition” value was “quite similar to that in the firefly light organ”. In addition, the “% Living Larvae” value in the data set with Manducca eggs came out at 90%. Besides, the “phosphodiesterase inhibition” value in data set [2] is “more potent inhibitor of the enzyme”. In data set [3], the “cyclic AMP content of hornworm nerve cord” value is 21.4 ± 0.8 pmol/mg. Further, in data set [4] (0.1% of each compound, FIG. 11), the “state of the leaf 72 hours after treatment” value is given as “almost entirely consumed”. In addition, in data set [4] (FIG. 12), the “IBMX concentrations at which IBMX itself acted to inhibit feeding” value is on record as 0.4-5 gm/b 100 ml. The “IBMX concentrations with no effect by itself and no increase of DDCDM activity” value in data set [4] (FIG. 12, DDCDM 0.1%) is on record as “less than 0.001 gm/100 ml”. Further, the “relative antifeeding potency” value in data set [4] (FIG. 13, dose sprayed on tomato leaves) was “more potent than theophylline”. For the same molecule, in data set [4] (FIGS. 10, 13, 17, Table 8), the “antifeeding activity of the compound by itself” value is listed as “very small inhibitory effect by itself”.

For the molecule `CCCCNc1ncnc2c1nc(SCc1ccccc1)n2[C@@H]1O[C@@H]2COP(=O)(O)O[C@H]2[C@H]1O` [n-butylaminobenzylthio cyclic AMP, 6-n-butylamino-8-benzylthio-cyclic AMP], the “antifeeding activity in the absence of IBMX” value in data set [4] (concentration of 1%, FIGS. 18, 19) is “some antifeeding activity”. The “amount of butyl-benzylthio cyclic AMP present after 4 hours, effect of addition of IBMX” value in data set [5] is “more than doubled”.

On to `Cn1c(=O)c2[nH]cnc2n(C)c1=O` [theophylline], for which, in data set [1], the “pattern of PDE inhibition” value is “quite similar to that in the firefly light organ”. The concentration in data set [6] is 4000 µM. Besides, in data set [2], the “phosphodiesterase inhibition” value is recorded as “active as phosphodiesterase inhibitors”. Further, the “inhibition of PDE enzyme activity in vitro” value in data set [2] (theophylline 4.0 mM, read from FIGS. 6,7 or 8 (firefly or hornworm)) is “at least 70%”. Further, the “% Leaf Remaining (increase over control)” value in data set [4] (1% Theophylline alone) came out at 11%.
